Measured values from patent US20090220996A1, “In vitro Assay Methods for Classifying Embryotoxicity of Compounds” (RELIANCE LIFE SCIENCES PVT LTD., priority 2007, published 2009).

What was measured:
[1] = test system: lineage marker gene expression in hEBs; test: Gene expression profile of day 15 hEBs (RT-PCR, densitometry) and ID50; type: cell-based, human; settings: for lineage markers down-regulated / affected: summary statement, hEBs
Procedure: On the 15th day, differentiated cells that are adherent are washed with 2 ml DPBS and trypsinized (0.05%) from 24 well plates and collected in a tube. The tube is centrifuged at 2000 rpm for 10 minutes to pellet the cells. The total RNA is isolated using TRIzol (Invitrogen Corporation) following the manufacturer's instructions. The RNA is quantified by absorbance at 260 nm, and 1-2 μg of RNA from control and drug treated cells are converted to cDNA using Superscript cDNA synthesis kit (Invitrogen Corporation) following the manufacturer's instructions. cDNA was used to study the expression of genes specific for ectoderm, mesoderm, and endoderm, by an appropriate method, such as RT-PCR, qPCR, or microarray. Markers indicative of each lineage are used.
The changes in gene expression in the presence or absence of the drug are compared. Changes in a mesodermal marker representative of cardiogenesis is used to calculate ID50 values of the tested compounds, and densitometry of the band intensities from RT-PCR, or CT values from qPCR, are used to calculate the ID50 values.
Various compounds were tested for their effect on the gene expression profiles of homeobox transcription factor Nanog (“NANOG”; GenBank Accession Number AB093576), neurofilament, heavy polypeptide 200 KDa (“NEFH” or “NFH”; GenBank Accession Number X15307), keratin-15 (“KRT15”; GenBank Accession Number X07696), actin, alpha, cardiac muscle (“ACTC1”; GenBank Accession Number NM_005159), msh homeobox 1 (“MSX1”; GenBank Accession Number BC067353), CD34 molecule (“CD34”; GenBank Accession Number BC039146), alpha fetoprotein (“AFP”; GenBank Accession Number J00077), serum albumin (“ALB”; GenBank Accession Number M12523), bone morphogenetic protein 4 (“BMP4”; GenBank Accession Number NM_130850), and bone morphogenetic protein 5 (“BMP5”; GenBank Accession Number M60314) in hEBs. Glyceraldehyde-3-phosphate dehydrogenase (“GAPDH”; GenBank Accession Number J04038) was used as a control.
RNA was extracted from different drug treated groups using the trizol method. One microgram of RNA was converted to cDNA using superscript reverse transcriptase. PCR was performed with the initial denaturation cycle at 94° C. for 5 min, followed by 35 cycles of 94° C. for 30 seconds, annealing temperature varying (Table 1) for 30 seconds, 72° C. for 1 minute, followed final extension at 72° C. for 5 min. Electrophoresis was performed on 1.5% agarose gels. Paired comparisons were conducted using a paired t test, and all data are presented as mean values±S.E. Differences were considered significant at a 0.05 level of confidence.
For calculating IC50-hES and ID50-hES cells, one petri dish was used per concentration of the test chemical, as well as for the untreated control (assay medium) and the solvent control. The lid was turned carefully to its regular position and put on top of a petri dish filled with 5 ml PBS. […] The changes in gene expression in the presence or absence of the drug were compared. Changes in mesodermal marker representative of cardiogenesis was used to calculate ID50 values of the tested compounds, and the densitometry of the band intensities performed in case of RT-PCR, or CT values in case of qPCR, were used to calculate the ID50 values.

[2] = test system: 3T3 (mouse fibroblast cell line); settings: Table 4; from the EST (Genschow, et al., 2000); cited from earlier work
hES, hEBs and HFF = test: CyQUANT/survival cytotoxicity, cell type not given; type: cell-based, human; settings: cell type not stated; for cell survival: CyQUANT
Procedure: Cytotoxicity analysis of three cell types (hES, hEBs and HFF) was evaluated using the CyQUANT assay following compound treatment. All data were the mean of three independent experiments for each cell type. Data is represented as the mean±SE.

[3] = 0.1 μg/ml, day 15 hEBs, FIG. 5B

O=c1[nH]cc(F)c(=O)[nH]1 [5-Fluorouracil, 5-fluorouracil]
down-regulation of ALB gene expression ([1]; 0.001 μg/ml, day 15 hEBs, FIG. 5B): 40%
decrease in NFH levels ([1]; 0.01 μg/ml, day 15 hEBs, FIG. 5B): 60%
down-regulation of AFP gene expression [1, 3]: 80%
down-regulation of MSX1 expression [1, 3]: 15%
down-regulation of NANOG expression [1, 3]: 25%
gene expression levels of ACTC1, KRT, CD34, BMP4, and BMP5 ([1]; 0.0001-0.1 μg/ml, day 15 hEBs, FIG. 5B): no change
lineage markers down-regulated / affected [1]: all the three lineage markers are effected

CS(=O)(=O)OCCCCOS(C)(=O)=O [Busulfan, busulfan]
Mouse EST IC50 - 3T3 [2]: 4.8 µg/mL

Cn1c(=O)c2c(ncn2C)n(C)c1=O [Caffeine, caffeine]
decrease of AFP expression ([1]; 50 μg/ml, day 15 hEBs, FIG. 6B): 80%
decrease of NFH expression ([1]; 50 μg/ml, day 15 hEBs, FIG. 6B): 80%
decrease of keratin expression ([1]; 50 μg/ml, day 15 hEBs, FIG. 6B): 85%
decrease of ACTC1 expression ([1]; 500 μg/ml, day 15 hEBs, FIG. 6B): 40%
expression levels of NANOG, CD34, BMP4, MSX1, and BMP5 ([1]; day 15 hEBs, FIG. 6B): no significant change
cell survival percentage compared to controls (hES, hEBs and HFF; 50 μg/ml, FIG. 3B): significant decrease
cell survival (hES, hEBs and HFF; 500 μg/ml, FIG. 4C): 20%

NC(=O)NO [Hydroxyurea, hydroxyurea]
Mouse EST IC50 - 3T3 [2]: 7.2 µg/mL

COc1ccc2c(c1)c(CC(=O)O)c(C)n2C(=O)c1ccc(Cl)cc1 [Indomethacin, indomethacin]
cell survival (hES, hEBs and HFF; 100 μg/ml, FIG. 4D): 20-30%
Mouse EST IC50 - 3T3 [2]: 27 µg/mL

CC1(C)S[C@@H]2[C@H](NC(=O)Cc3ccccc3)C(=O)N2[C@H]1C(=O)O [Penicillin G, penicillin G]
ALB levels ([1]; 10 μg/ml, day 15 hEBs, FIG. 7): decreased
AFP levels decreased to ([1]; 100 μg/ml, day 15 hEBs, FIG. 7): 40%
markers of ectoderm, mesoderm, and endoderm other than AFP and ALB ([1]; day 15 hEBs, FIG. 7A): no significant change
expression of AFP and ALB ([1]; highest dose (5000 μg/ml), day 15 hEBs, FIG. 7B): complete loss of expression
lineage markers down-regulated / affected [1]: only endodermal markers are down-regulated
Mouse EST IC50 - 3T3 [2]: 1586 µg/mL
